Measurements: publication PMC3765993, “The duration of sleep promoting efficacy by dual orexin receptor antagonists is dependent upon receptor occupancy threshold” (BMC Neuroscience, 2013)
Where two headings read alike, the source gives them in different places.

Tests used:
[1] = tested on: rhesus monkeys; conditions: sleep-promoting doses; cited from earlier work
[2] = rhesus monkeys, 10 mg/kg p.o.
[3] = in vivo; conditions: rhesus monkey, po, 10 mg/kg
[4] = tested on: rhesus monkeys; assay: Rhesus monkey polysomnography (active wake); assay type: in vivo; conditions: for Active wake late in the inactive phase and next morning (residual sleep effect): 10 mg/kg p.o. 2 h before lights out, 10 mg/kg
Procedure: Animals were fed on a calorie-controlled diet of laboratory chow supplemented with fruit and vegetables. Water was available ad libitum with the exception of those monkeys trained to perform cognitive tasks, for which access was restricted for up to 4 h prior to and during cognitive testing. Treatment occurred at 14:40 (Zeitgeber time [ZT] 10:10) in a balanced 1-day cross-over design: 1 day of drug or vehicle followed by 6 days of baseline followed by 1 day of vehicle or drug. Cognition tasks were scheduled for next-day evaluation as described below. Sleep/wake architecture was scored according to vigilance state (active wake, quiet wake, delta sleep I, delta sleep II, and REM sleep) at 30-minute intervals and analyzed as previously described. Spectral analysis of continuous EEG was quantified between vehicle and compound after binning continuous frequencies into canonical frequency bands (reported herein: Delta, 0.5 – 4 Hz; Theta, 4.0 – 7 Hz; Gamma, 35.0 – 100.0 Hz). qEEG values are spectral power (uV2) log transformed before analysis and averaged over 30-minute intervals, expressed as means +/− SEM, and compared with vehicle using a mixed-model ANOVA at each time point with random effects for subject and date within subject in the R statistical computing environment (cran.us.r-project.org; the R Foundation for Statistical Computing, Vienna, Austria) using a linear mixed effects model for significance testing.

[5] = tested on: rhesus monkeys; assay: Monkey Delayed Match to Sample (DMS) task; assay type: in vivo; conditions: 10 mg/kg p.o., versus vehicle
From the text: All cognition testing occurred in the animal’s home cage equipped with a touchscreen. Each DMS trial was initiated with a single ‘sample’ image (150 × 200 pixels: 1.8 inches × 2.3 inches) in one of eight colors presented at the center of a touchscreen. Evaluation began when the monkey touched the sample image, at which point the screen became blank for a retention period. Following the retention period, four choice images (150 × 200 pixels) were presented, one in each corner of the screen. One of the four choice images matched the color of the sample image, whereas the three remaining ‘distractor’ images were drawn from the pool of remaining colors. A reinforcer was provided when the monkey touched the choice image that matched the color of the sample image. […] Test sessions comprised 96 trials or lasted for up to 45 min. […] Response latencies to sample and choice images were also recorded. Values reported reflect the proportion of correct responses collapsed over all retention intervals. Differences from vehicle were examined using repeated measures ANOVA.

[6] = tested on: rhesus monkeys; parameters: method as in PMID 23552372; conditions: 10 mg/kg, active-phase dosing, quantified over 2 h; cited from earlier work
[7] = tested on: rhesus monkeys; assay: Monkey Serial Choice Reaction Time (SCRT) task; assay type: in vivo; conditions: 10 mg/kg p.o.; for Next-day attention (SCRT, correct responses to shortest cues), 16 h after dosing: versus vehicle, 10 mg/kg
From the text: Each SCRT trial was initiated with the appearance of 10 blue square ‘target’ images evenly distributed at 3-inch intervals around the perimeter of a touchscreen presented together with a centrally located circular ‘centering’ image (1.4 inch diameter circle). The task began with the monkey touching the centering image, which then turned gray. The monkey was then required to touch the centering image continuously throughout a variable pre-cue interval of 0.25-7.5 s. On completion of the pre-cue interval, one of the blue target images was cued by turning red for one of four cue durations before turning back to blue. To obtain a reward, the monkey was required to touch the target image that had been ‘cued’ red within a 5 s limited hold period. […] On completion of the trial, an inter-trial interval of 2 s was initiated prior to the next trial. […] If the monkey initiated a trial but removed its hand from the touchscreen prior to the appearance of the cue, the trial was terminated and the screen was blanked during a 2 s inter-trial interval. Sessions were terminated after 20 min. Cue location and duration were pseudo-randomly assigned. Cue duration and the target size were titrated for each subject on the basis of performance during previous baseline sessions to yield a performance of 60–80% correct responses for the trials of the shortest cue duration. The briefest cue duration varied from 0.04–0.1 s and the cues varied in size from 0.2–0.7 inches, although each cue had the same touch-sensitive area of 1.75 inches. Values reported in the current study reflect the proportion of correct responses to targets after cues of the shortest duration only.

[8] = Unbound (free) plasma fraction, rat
[9] = tested on: dogs; conditions: cited from earlier work
[10] = Free plasma fraction, human
[11] = Unbound (free) plasma fraction, dog
[12] = molecular target: T1, Orexin 2 receptor (Homo sapiens, UniProt O43614); assay: Orexin 2 receptor binding kinetics
T1 sequence (O43614 1-444): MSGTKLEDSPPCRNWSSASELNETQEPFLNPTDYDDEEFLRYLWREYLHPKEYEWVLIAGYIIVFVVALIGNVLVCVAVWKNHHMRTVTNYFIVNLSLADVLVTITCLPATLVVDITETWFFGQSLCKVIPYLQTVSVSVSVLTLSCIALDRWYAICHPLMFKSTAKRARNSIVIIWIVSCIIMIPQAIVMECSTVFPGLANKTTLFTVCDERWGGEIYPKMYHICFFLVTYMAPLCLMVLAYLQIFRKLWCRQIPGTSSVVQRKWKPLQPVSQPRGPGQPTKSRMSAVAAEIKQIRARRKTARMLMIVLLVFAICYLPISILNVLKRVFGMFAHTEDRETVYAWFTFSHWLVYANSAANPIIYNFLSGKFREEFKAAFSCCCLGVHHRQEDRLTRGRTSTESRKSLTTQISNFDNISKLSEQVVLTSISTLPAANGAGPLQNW

[13] = molecular target: T2, OX2R (Homo sapiens, UniProt O43614); assay: Human plasma concentration calculated for a given OX2R occupancy (from transgenic rat occupancy, free-fraction normalized); assay type: in vivo; conditions: free + bound; normalized for free fraction (rat 1.4%, human 1.0%)
T2 sequence (O43614 1-444): T1 sequence (O43614 1-444)

[14] = Plasma and CSF compound levels in satellite rats; conditions: rats
Procedure: Separately, the relationship between OX2R occupancy relative to plasma exposure was determined by administering DORA-12 intravenously (i.v.) over a range of doses to transgenic rats expressing human OX2R to determine a full occupancy curve over a wide range of plasma concentrations in order to define the maximal occupancy against which raw occupancy values could be normalized. This relationship was then used to determine the OX2R occupancy in PSG experiments from measured plasma concentrations.
Occupancy of human OX2R in transgenic rats expressing the receptor via the rat enolase promoter was performed ex vivo in radioligand-binding-displacement assays essentially as previously described with minor modifications. To determine the relationship between OX2R occupancy for a given compound over a full range of plasma and CSF concentrations, hOX2R-expressing rats were dosed i.v. with compound. Immediately following 30 min of i.v. administration, animals were anesthetized, sacrificed, and CSF, blood, and brain tissue were harvested and frozen for analysis. Frozen tissue was weighed and thawed coincident with homogenization. The homogenate was pelleted at 21,000 × g for 1 min and the pellet was resuspended. […] Non-specific binding was determined by the addition of 1000-fold excess unlabeled ligand. Experimental (dosed)-specific binding was compared with control (vehicle-dosed) binding ([specific total counts minus specific experimental counts]/specific total counts × 100 = percent occupancy). Raw occupancy values determined in this manner over a range of plasma and CSF values were then used to construct a normalized curve where the theoretical maximum occupancy value was defined as 100% and occupancies relative to plasma or CSF values were fit to a […] (hyperbola) curve (GraphPad Prism, San Diego, CA, USA). […] In separate experiments, plasma, CSF, and brain tissue was collected at time points following dosing to directly measure compound levels and corresponding OX2R occupancies at these times. Resulting occupancy relative to measured plasma levels of compound was fit to a normalized binding curve as described previously.

[15] = molecular target: T2, OX2R; assay: OX2R occupancy, ex vivo radioligand-binding displacement in transgenic rats expressing human OX2R; parameters: from tissue; host or cells: brain homogenate of transgenic rats expressing hOX2R under the rat enolase promoter; species or system transgenic rat; conditions: rats, calculated from plasma value on normalized occupancy curve
From the text: Frozen tissue was weighed and thawed coincident with homogenization.

[16] = Suvorexant plasma levels in humans (Phase 1)
[17] = molecular target: T2, OX2R; conditions: free + bound; cited from earlier work
[18] = Suvorexant plasma levels in satellite dogs; conditions: 1 or 3 mg/kg p.o.

CN1CCN(C(=O)O[C@H]2c3nccnc3C(=O)N2c2ccc(Cl)cn2)CC1 [Eszopiclone]
Cognitive assessment in DMS and SCRT tasks within 2 h following treatment [1]: substantial deficits | Time of plasma Cmax [2]: 0.5 h | Cmax [3]: 1680 nM | concentration at 17 h [3]: 535 nM | Time for which reductions in active wake were detectable ([4]; 10 mg/kg p.o.): up to 6 h | Active wake late in the inactive phase and next morning (residual sleep effect) [4]: did not demonstrate next-day sleep effects | Active wake late in the inactive phase and next morning (residual sleep effect) ([4]; listed as eszopiclone): no consistent attenuation of active wake | Next-day recognition memory (DMS), 14 h after dosing [5]: did not demonstrate next-day sleep effects or memory impairment | Next-day recognition memory (DMS), 14 h after dosing ([5]; listed as eszopiclone): not | Attenuation of active wake relative to vehicle [6]: 55.0 min | Time for which effects on attention were observed [7]: up to 16 h | Next-day attention (SCRT, correct responses to shortest cues), 16 h after dosing [7]: significantly impair attention | Next-day attention (SCRT, correct responses to shortest cues), 16 h after dosing ([7]; listed as eszopiclone): significant deficits

Cc1ccc(-n2nccn2)c(C(=O)N2CCN(c3nc4cc(Cl)ccc4o3)CC[C@H]2C)c1 [Suvorexant, [(7R)-4-(5-chloro-1,3-benzoxazol-2-yl)-7-methyl-1,4-diazepan-1-yl][5-methyl-2-(2H-1,2,3-triazol-2-yl)phenyl]methanone]
fraction unbound [8]: 0.014 | Duration of effects on active wake ([9]; 1 mg/kg): up to 4 h | Duration of effects on active wake ([9]; 3 mg/kg): up to 7.5 h | fraction unbound [10]: 0.01 | fraction unbound [11]: 0.01 | T1/2 OFF (half-life off-rates) [12]: 1.49 h | T1/2 ON (binding half-life) ([12]; almorexant applied 3-fold above its Kd (value an underestimate)): 1.34 h | Human plasma concentration calculated to correspond to 65% OX2R occupancy [13]: 0.33 µM | Plasma ([14]; dose 10 mg/kg): 1600.0 nM | Plasma ([14]; dose 30 mg/kg): 2100.0 nM | Plasma ([14]; dose 100 mg/kg): 5100.0 nM | OX2R Occ (% max) ([15]; dose 10 mg/kg): 92.6 % max | OX2R Occ (% max) ([15]; dose 30 mg/kg): 94.3 % max | OX2R Occ (% max) ([15]; dose 100 mg/kg): 97.6 % max | Tmax ([16]; human, in vivo): ≤ 3 h | half-life ([16]; human, in vivo): > 8 h | Post-dose time by which mean plasma concentrations fell below level for 65% OX2R occupancy ([16]; humans, 10 and 20 mg doses): ≤ 8 h | Plasma level calculated to correspond to 80% OX2R occupancy in humans [17]: 0.71 µM | Plasma concentration at time points when efficacy was observed [18]: > 342 nM | Plasma exposure corresponding to efficacy [18]: > 342 nM
